Literature values as cited in patent publication US20110262453A1, “Markers for Assessing the Susceptibility of Cancer to IGF-1R Treatment” (priority 2008, published 2011).
Blank lines part the entries; values can stand above or below the compound they belong to.

What was measured:
[1] = molecular target: IGF-1R (Homo sapiens, UniProt P08069)
[2] = tested on: cultured IGF-1R-positive tumor cells
[3] = tested on: xenografted and allografted mice
[4] = tested on: rodents
[5] = molecular target: IGF-1R over IR (Homo sapiens, UniProt P08069)
IGF-1R over IR, sequence (P08069 31-1367): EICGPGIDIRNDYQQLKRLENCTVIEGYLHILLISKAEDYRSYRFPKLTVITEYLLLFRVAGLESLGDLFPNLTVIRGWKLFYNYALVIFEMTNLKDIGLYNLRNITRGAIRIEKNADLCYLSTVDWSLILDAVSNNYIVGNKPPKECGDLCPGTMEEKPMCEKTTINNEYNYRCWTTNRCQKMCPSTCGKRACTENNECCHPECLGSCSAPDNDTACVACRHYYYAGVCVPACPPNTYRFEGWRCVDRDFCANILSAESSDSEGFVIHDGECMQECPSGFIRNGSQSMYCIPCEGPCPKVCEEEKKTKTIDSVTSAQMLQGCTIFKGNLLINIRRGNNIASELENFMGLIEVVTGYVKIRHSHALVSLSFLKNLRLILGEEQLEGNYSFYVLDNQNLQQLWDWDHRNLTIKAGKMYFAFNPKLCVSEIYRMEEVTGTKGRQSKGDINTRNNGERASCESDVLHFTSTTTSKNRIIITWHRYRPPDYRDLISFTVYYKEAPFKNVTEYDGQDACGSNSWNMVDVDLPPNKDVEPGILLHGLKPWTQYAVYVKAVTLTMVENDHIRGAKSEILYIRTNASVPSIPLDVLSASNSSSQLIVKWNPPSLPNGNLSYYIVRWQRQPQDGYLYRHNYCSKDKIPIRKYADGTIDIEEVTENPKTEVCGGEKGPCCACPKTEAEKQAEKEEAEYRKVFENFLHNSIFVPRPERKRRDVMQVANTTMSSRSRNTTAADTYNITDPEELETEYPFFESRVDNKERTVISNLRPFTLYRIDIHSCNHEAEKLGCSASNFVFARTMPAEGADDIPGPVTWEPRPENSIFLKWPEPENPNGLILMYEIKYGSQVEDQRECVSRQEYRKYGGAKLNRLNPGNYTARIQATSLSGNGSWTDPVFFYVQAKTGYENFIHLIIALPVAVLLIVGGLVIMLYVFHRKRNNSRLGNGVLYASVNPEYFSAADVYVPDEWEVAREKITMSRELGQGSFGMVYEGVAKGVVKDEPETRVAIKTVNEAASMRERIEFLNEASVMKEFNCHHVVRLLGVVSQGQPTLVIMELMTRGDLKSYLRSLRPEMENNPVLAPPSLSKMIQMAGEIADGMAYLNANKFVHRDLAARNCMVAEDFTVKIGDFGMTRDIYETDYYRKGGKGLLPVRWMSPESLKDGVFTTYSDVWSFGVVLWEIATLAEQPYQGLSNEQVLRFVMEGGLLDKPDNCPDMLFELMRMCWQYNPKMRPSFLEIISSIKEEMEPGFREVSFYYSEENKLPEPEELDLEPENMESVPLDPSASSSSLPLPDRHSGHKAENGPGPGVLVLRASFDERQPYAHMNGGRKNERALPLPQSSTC

IGF-1R, sequence (P08069 31-1367): as above

SMILES: COc1cc([C@@H]2c3cc4c(cc3[C@H](O)[C@H]3COC(=O)[C@@H]23)OCO4)cc(OC)c1OC [PPP, picropodophyllin]
IGF-1R activity [1]: efficiently blocked IGF-1R activity | apoptosis [2]: induced apoptosis | pAkt and phosphorylated extracellular signal regulated kinase 1 and 2 (pErk1/2) [2]: reduced | tumor regression [3]: complete tumor regression | LD50 [4]: > 500 mg/kg

SMILES: CC(C)(C)c1cc(C=C(C#N)C#N)cc(Br)c1O [AG1024]
selectivity towards IGF-1R over IR (in words) [5]: some selectivity

selectivity towards IGF-1R over IR (in words) [5]: some selectivity
SMILES: N#C/C(=C\c1ccc(O)c(O)c1)C(=O)c1ccc(O)c(O)c1 [AG538]

selectivity towards IGF-1R over IR [5]: 100 fold
SMILES: Nc1ncnc2c1c(-c1cccc(OCc3ccccc3)c1)cn2C1CC(CN2CCC2)C1 (centres unmarked) [NVP-AEW541]
